The source of these data is PubChem BioAssay (NCI).

Among the test systems are A498 renal; A549 NSCLC; ACHN renal; COLO 205 colon; HL-60(TB) leukemia; SK-MEL-5 melanoma; SR leukemia; UACC-257 melanoma; UACC-62 melanoma; HOP-92 NSCLC.
Holding throughout (assay): NCI-60 cell line screen, 48 h

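48-hour exposure; five concentrations; linearly interpolated endpoints. GI50: concentration for 50% inhibition of growth. Definition used: TGI = concentration required for complete inhibition of growth.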

Turning to `COc1ccc(/C(C#N)=C/c2cc(OC)c(OC)c(OC)c2)cc1`, the GI50 in the experiment with A498 renal was 22.7 µM; in the experiment with A549 NSCLC, 23.6 µM; with ACHN renal, 23.5 µM; with COLO 205 colon, 20.1 µM; in the experiment with HL-60(TB) leukemia, 13.2 µM; in the experiment with SK-MEL-5 melanoma it was 10.7 µM. For the same compound, the GI50 is 3.36 µM in the experiment with SR leukemia, 31 µM in the experiment on UACC-257 melanoma and 14.1 µM in the experiment with UACC-62 melanoma. Moreover, the TGI with A498 renal was > 100 µM; in the experiment with A549 NSCLC, > 100 µM; with ACHN renal, > 100 µM; in the experiment on COLO 205 colon, 64.8 µM; in the experiment on HL-60(TB) leukemia, 56.5 µM; in the experiment with SK-MEL-5 melanoma it was 28.7 µM. Further, the figures for the TGI with SR leukemia, in the experiment on UACC-257 melanoma and in the experiment with UACC-62 melanoma were 41.5 µM, > 100 µM and > 100 µM, respectively.

In the case of `CC(C)C(=O)c1c(C(F)(F)F)n([O-])c2cc(F)c(F)cc2[n+]1=O`, the GI50 is 0.13 µM in the experiment with A498 renal; 1.38 µM in the experiment on A549 NSCLC; 0.155 µM with ACHN renal; 0.427 µM with COLO 205 colon; 0.191 µM in the experiment with HOP-92 NSCLC; 0.197 µM with SK-MEL-5 melanoma. Moreover, the GI50 is 2.28 µM with UACC-257 melanoma and 0.666 µM in the experiment with UACC-62 melanoma. Besides, the TGI worked out at 1.33 µM in the experiment with A498 renal; 4.14 µM with A549 NSCLC; 0.324 µM in the experiment on ACHN renal; 1.66 µM with COLO 205 colon; 0.972 µM in the experiment on HOP-92 NSCLC; 0.609 µM with SK-MEL-5 melanoma. For the same compound, the figures for the TGI with UACC-257 melanoma and in the experiment with UACC-62 melanoma were 6.38 µM and 1.92 µM, respectively.

Take `NC(=O)c1cccc(OCC(O)CO)c1` (centres undefined): the TGI in the experiment on A498 renal, in the experiment on A549 NSCLC, in the experiment with ACHN renal, in the experiment with COLO 205 colon, in the experiment on HL-60(TB) leukemia and in the experiment with SK-MEL-5 melanoma was > 100 µM each time. The TGI with SR leukemia, in the experiment on UACC-257 melanoma and in the experiment with UACC-62 melanoma was > 100 µM each time.

As to `CCOc1ccc(NCC2CC/C(=C\c3ccccc3OC)C2=O)cc1` (centres undefined), the TGI with A498 renal is 33.9 µM; with A549 NSCLC, 35.6 µM; with ACHN renal, 27.8 µM; with COLO 205 colon, 5.59 µM; with HL-60(TB) leukemia, > 23.7 µM; in the experiment with HOP-92 NSCLC, 34 µM. Further, the values for the TGI in the experiment on SK-MEL-5 melanoma, in the experiment with UACC-257 melanoma and in the experiment on UACC-62 melanoma were 30.3 µM, 20 µM and 25.5 µM, respectively.

For `COc1cc2c(cc1OC)C1Cc3ccc(OC)c(OC)c3C[N+]1([O-])CC2` (centres undefined), the TGI in the experiment with A498 renal, in the experiment on A549 NSCLC, in the experiment with ACHN renal, with SK-MEL-5 melanoma and in the experiment on UACC-257 melanoma was > 100 µM in each case.

Regarding `CCOC(=O)C1=C(C)N(NC(N)=O)C2(N)N(NC(N)=O)C(C)=C(C(=O)OCC)C12C(=O)OCC` (centres undefined), the TGI in the experiment on A498 renal, with A549 NSCLC, in the experiment with ACHN renal, with SK-MEL-5 melanoma, in the experiment with SR leukemia and with UACC-257 melanoma was > 100 µM throughout. Besides, the TGI in the experiment on UACC-62 melanoma is > 100 µM.

As for `CCCN(CCC)C(=O)c1nc(N)nc(-c2ccc(OC)cc2)c1-c1ccc(OC)cc1`, the TGI in the experiment with A498 renal, in the experiment on A549 NSCLC, in the experiment on ACHN renal, with COLO 205 colon, in the experiment with HL-60(TB) leukemia and in the experiment with HOP-92 NSCLC was > 100 µM in each case. Also, the TGI with SK-MEL-5 melanoma, in the experiment with UACC-257 melanoma and in the experiment on UACC-62 melanoma was > 100 µM throughout.

In the case of `C/C(CC(=O)Nc1ccccc1C)=N/NS(=O)(=O)c1ccc(C)cc1`, the TGI in the experiment with A498 renal, in the experiment with A549 NSCLC, with ACHN renal, with COLO 205 colon, in the experiment with HL-60(TB) leukemia and in the experiment with HOP-92 NSCLC was > 100 µM throughout. Further, the TGI in the experiment on SK-MEL-5 melanoma, with UACC-257 melanoma and in the experiment with UACC-62 melanoma was > 100 µM each time.

Take `COc1cc(C(C)c2cc3c(cc2OCCNC(=O)COc2cc4c(cc2C(C)c2cc(OC)c(OC)c(OC)c2)OCO4)OCO3)cc(OC)c1OC` (centres undefined): the TGI with A498 renal, in the experiment on A549 NSCLC, in the experiment on ACHN renal, with COLO 205 colon, with HL-60(TB) leukemia and with SK-MEL-5 melanoma was > 100 µM throughout. For the same compound, the TGI with SR leukemia, in the experiment with UACC-257 melanoma and in the experiment on UACC-62 melanoma was > 100 µM throughout.

Consider `CC(C(=O)c1ccccc1)C1(O)C(=O)Nc2ccc(Cl)cc21` (centres undefined), for which the TGI with A498 renal, in the experiment with A549 NSCLC, in the experiment with ACHN renal, in the experiment on COLO 205 colon, with HOP-92 NSCLC and in the experiment on UACC-257 melanoma was > 100 µM in each case. Further, the TGI in the experiment with UACC-62 melanoma is > 100 µM.

With `O=S(=O)(N=NC=C1c2ccccc2N(O)c2ccccc21)c1ccc(Cl)cc1`, the TGI with A498 renal, in the experiment on A549 NSCLC, in the experiment on ACHN renal, in the experiment on COLO 205 colon, with HL-60(TB) leukemia and in the experiment with HOP-92 NSCLC was > 100 µM each time. Also, the TGI in the experiment on SK-MEL-5 melanoma, in the experiment on UACC-257 melanoma and with UACC-62 melanoma was > 100 µM throughout.

As to `Cc1nc(/C=C2\C(=O)C=Cc3ccccc32)c(O)o1`, the TGI with A498 renal, in the experiment on A549 NSCLC, in the experiment with ACHN renal, with COLO 205 colon, in the experiment with HL-60(TB) leukemia and with HOP-92 NSCLC was > 100 µM each time. Moreover, the TGI in the experiment with SK-MEL-5 melanoma, in the experiment with UACC-257 melanoma and in the experiment with UACC-62 melanoma was > 100 µM throughout.

As to `C=C1C(=O)O[C@H]2[C@H]1CC/C(COC(=O)OC/C1=C/CC[C@@]3(C)O[C@H]3[C@H]3OC(=O)[C@@H](CN(C)C)[C@@H]3CC1)=C\CC[C@@]1(C)O[C@@H]21`, the GI50 in the experiment with A498 renal is 8.29 µM; in the experiment on A549 NSCLC, 10.8 µM; with ACHN renal, 0.457 µM; in the experiment on COLO 205 colon it was 0.487 µM; in the experiment on HL-60(TB) leukemia it was 0.233 µM; with HOP-92 NSCLC, 0.497 µM. For the same compound, the GI50 in the experiment on SK-MEL-5 melanoma is 3.97 µM; in the experiment with UACC-257 melanoma, 1.63 µM; with UACC-62 melanoma, 1.85 µM. Besides, the TGI with A498 renal came to 21.8 µM; in the experiment with A549 NSCLC, 24.3 µM; in the experiment on ACHN renal, 1.69 µM; with COLO 205 colon, 1.93 µM; with HL-60(TB) leukemia, 0.845 µM; in the experiment with HOP-92 NSCLC, 1.98 µM. In addition, the TGI was found to be 15.1 µM with SK-MEL-5 melanoma, 4.11 µM in the experiment on UACC-257 melanoma and 5.13 µM with UACC-62 melanoma.
